ChEMBL document CHEMBL6153137, “Design, Synthesis, and Biological Evaluation of Novel Orally Available Covalent CDK12/13 Dual Inhibitors for the Treatment of Tumors” (J Med Chem, 2025)
Activity calls are given as the source filed them. No cut-off for these calls is given here.

Experiments:
[1] = Ratio of drug level in tumor to plasma in Balb/c mouse xenografted with human MV4-11 cells at 30 mg/kg, po administered via gavage and measured after 2 hrs; format: ADME, organism-based
[2] = tested on: SUM149PT; assay: Antiproliferative activity against human SUM149PT cells assessed as inhibition of cell growth incubated for 7 days by CellTiter-Glo reagent based luminescence analysis; format: functional; conditions: 168 h
[3] = tested on: SUM149PT; assay: Induction of DNA damage in human SUM149PT cells assessed as increase in gammaH2AX phosphorylation at 250 to 1000 nM incubated for 1 to 24 hrs by western blot analysis; format: functional, cell-based; conditions: dose 250-1000 nM, time lower 1.0 hrs, time upper […]
[4] = molecular target: CDK7/Cyclin H/MNAT1 (Homo sapiens) (UniProt P51946+P50613+P51948); assay: Inhibition of human recombinant N-terminal 6X His-tagged CDK7/CCNH/N-terminal 6X His-tagged MNAT1 expressed in HEP Sf9 cells using ATP as substrate at 2 uM measured after 60 mins by ADP-Glo reagent based luminescence assay
[5] = tested on: HEP Sf9; assay: Inhibition of human recombinant N-terminal GST-tagged CDK4/C-terminal 6XHis-tagged Cyclin D3 S259A mutant expressed in HEP Sf9 cells using ATP as substrate at 2 uM measured after 60 mins by ADP-Glo reagent based luminescence assay
[6] = Ratio of drug level in tumor to plasma in Balb/c mouse xenografted with human SUM149PT cells at 30 mg/kg, po administered via gavage and measured after 2 hrs; format: ADME, organism-based
[7] = AUC in Balb/c mouse xenografted with human SUM149PT cells at 60 mg/kg, po administered once daily via gavage; format: ADME, organism-based; conditions: in vivo
[8] = AUC (0 to infinity) in Sprague-Dawley rat at 150 mg/kg, po by LC-MS/MS analysis; format: ADME, organism-based; conditions: in vivo
[9] = Toxicity against female Sprague-Dawley rat assessed as effect on hematocrit level at 7.5 to 30 mg/kg, po administered once daily via gavage for 28 days and measured on day 29; format: organism-based; conditions: in vivo, 696 h, dose 7.5-30 mg/kg, time 29 day
[10] = Toxicity against female Sprague-Dawley rat assessed as effect on AST level in blood at 7.5 to 30 mg/kg, po administered once daily via gavage for 28 days and measured on day 29; format: organism-based; conditions: in vivo, 696 h, dose 7.5-30 mg/kg, time 29 day
[11] = Half life in male Sprague-Dawley rat at 20 mg/kg, po administered once daily via gavage for 28 days; format: ADME, organism-based; conditions: in vivo, time 28 day
[12] = Half life in female Sprague-Dawley rat at 15 mg/kg, po administered once daily via gavage for 28 days; format: ADME, organism-based; conditions: in vivo, time 28 day
[13] = AUC(0 to t) in male Sprague-Dawley rat at 20 mg/kg, po administered once daily via gavage for 28 days; format: ADME, organism-based; conditions: in vivo, 672 h, time 28 day
[14] = AUC(0 to t) in female Sprague-Dawley rat at 30 mg/kg, po administered once daily via gavage for 28 days; format: ADME, organism-based; conditions: in vivo, 672 h, time 28 day

C=CC(=O)N1CCc2c(ncnc2N2CC[C@@H](Nc3ncc(Cl)c(OC)n3)C2)C1
Kp at 2 h [1]: 0.46 | IC50 [2]: 160 nM | Activity [3]: Active | inhibition [4]: 94% | inhibition [5]: 68% | Kp at 2 h [6]: 0.38 | AUC [7]: 4620 ng·h/mL | AUC(0-inf) [8]: 31200 ng·h/mL | Activity [9]: Non-toxic | Activity [10]: Non-toxic | half-life [11]: 4.2 h | half-life [12]: 2.3 h | AUCt [13]: 2870 ng·h/mL | AUCt [14]: 7860 ng·h/mL
